Assay results taken from patent publication US12459951B2, “Compounds that interact with RAS superfamily proteins for treatment of cancers, inflammatory diseases, rasopathies, and fibrotic disease” (SHY Therapeutics, LLC, priority 2022, dated 2025).
Where a name gives a salt, the structure may show the parent alone.

How the values were obtained:
[1] = tested on: Erk1/2 phosphorylation; test: Erk1/2 Phosphorylation Assay (western blot), Panc-1; type: cell-based, human; conditions: at 10 μM, * = activation
Summary of the method: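 Phospho-Erk1/2 (Thr202/Tyr204) was detected by western blot in lysates of Panc-1 cells (KRas G12D). These had 6 h, 37° C exposure to 10 μM compound or a dilution series for IC50, in 0.3% DMSO. Cells were either starved overnight in 0.5% FBS with a 15-min 1.5 ng/ml EGF pulse, or kept unstimulated in 10% FBS.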

[2] = tested on: IL6; test: IL-6 Quantification Assay (ELISA), LPS-stimulated RAW 264.7; type: cell-based; parameters: inhibition: dose or concentration left out as unconfirmed; conditions: Mus musculus, RAW264.7; read-out: IL-6: % inh.
[3] = tested on: TNF-alpha; test: TNF-alpha Quantification Assay (ELISA), LPS-stimulated RAW 264.7; type: cell-based; conditions: Mus musculus, RAW264.7; at 10 μM; read-out: TNFα: % inh.
[4] = tested on: KRas G12D mutant; test: Ras GTP Binding Domain Inhibition Assay (Ras Superfamily Assay); conditions: for KRas G12D mutant + SOS: % inh.: with SOS; for KRas G12D mutant: % inh.: without SOS
Summary of the method: (§1)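 Ni-plate capture of His-tagged protein (10-30 μg/mL, o/n 4° C); cpd 20 μM or dilution series, 1% DMSO, 3 h RT ± Sos 556-1049 last h; 100 nM Cy-labelled GTP 45 min RT; 3× wash; fluorescence read.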

[5] = tested on: KRas wild type; test: as above; conditions: for KRas wild type + SOS: % inh.: with SOS; for KRas wild type: % inh.: without SOS
Summary of the method: as §1

[6] = target: T1, Rac-1 (Homo sapiens, UniProt P63000); test: as above; conditions: read-out: Rac-1: % inh.
T1 construct: made in house
Summary of the method: as §1

With `COC1CCCN(c2nc(-c3nccn3C)nn3cc(-c4ccn(C(C)C)n4)c(C)c23)C1` (racemic) [Compound 4, rac 6-(1-Isopropyl-1H-pyrazol-3-yl)-5-methyl-2-(1-methyl-1H-imidazol-2-yl)-4-(3-(oxo-γ6-methyl)piperidin-1-yl)pyrrolo[2,1-f][1,2,4]triazine] the “% inh of Erk1/2 phosphorylation in Panc-1” value (“% inh … in Panc-1” for short) [1] was “D (85-100% inhibition)”, the inhibition [2] was 75 to 100% and the inhibition at 10 µM [3] was 75 to 100%. The “KRas G12D mutant + SOS: % inh.” value ([4]; 20 μM compound) was 0 (0 = 0% inhibition), the “KRas G12D mutant: % inh.” value ([4]; 20 μM compound) was “A (A = 1-25% inhibition)” and the “KRas wild type + SOS: % inh.” value ([5]; 20 μM compound) was “A (A = 1-25% inhibition)”. The “KRas wild type: % inh.” value ([5]; 20 μM compound) was “A (A = 1-25% inhibition)” and the inhibition at 20 µM [6] was 1 to 25%.

For `Cc1c(-c2ccn(C(C)C)n2)cn2nc(-c3nccn3C)nc(Nc3cnn(C(C)C)n3)c12` [Compound 77, 6-(1-Isopropyl-1H-pyrazol-3-yl)-N-(2-isopropyl-2H-1,2,3-triazol-4-yl)-5-methyl-2-(1-methyl-1H-imidazol-2-yl)pyrrolo[2,1-f][1,2,4]triazin-4-amine], the “% inh … in Panc-1” value [1] was “D* (85-100% activation)”, the inhibition [2] was 1 to 24% and the inhibition at 10 µM [3] was 25 to 49%. The “KRas G12D mutant + SOS: % inh.” value ([4]; 20 μM compound) was “B (B = 26-49% inhibition)”, the “KRas G12D mutant: % inh.” value ([4]; 20 μM compound) was “D (D = 76-100% inhibition)” and the “KRas wild type + SOS: % inh.” value ([5]; 20 μM compound) was “C (C = 50-75% inhibition)”. For the same molecule, the “KRas wild type: % inh.” value ([5]; 20 μM compound) was “C (C = 50-75% inhibition)” and the inhibition at 20 µM [6] was 76 to 100%.

For `COc1cccnc1Nc1nc(-c2nccn2C)nn2cc(-c3ccn(C(C)C)n3)c(C)c12` [Compound 89, 6-(1-Isopropyl-1H-pyrazol-3-yl)-N-(3-methoxypyridin-2-yl)-5-methyl-2-(1-methyl-1H-imidazol-2-yl)pyrrolo[2,1-f][1,2,4]triazin-4-amine], the “% inh … in Panc-1” value [1] was “D* (85-100% activation)”, the inhibition [2] was 75 to 100% and the inhibition at 10 µM [3] was 25 to 49%. For the same molecule, the “KRas G12D mutant + SOS: % inh.” value ([4]; 20 μM compound) was “D (D = 76-100% inhibition)”, the “KRas G12D mutant: % inh.” value ([4]; 20 μM compound) was “D (D = 76-100% inhibition)” and the “KRas wild type + SOS: % inh.” value ([5]; 20 μM compound) was “D (D = 76-100% inhibition)”. The “KRas wild type: % inh.” value ([5]; 20 μM compound) was “D (D = 76-100% inhibition)” and the inhibition at 20 µM [6] was 76 to 100%.

`Cc1c(-c2ccn(C(C)C)n2)cn2nc(-c3nccn3C)nc(Nc3noc(C4CC4)n3)c12` [Compound 75, 5-Cyclopropyl-N-(6-(1-isopropyl-1H-pyrazol-3-yl)-5-methyl-2-(1-methyl-1H-imidazol-2-yl)pyrrolo[2,1-f][1,2,4]triazin-4-yl)-1,2,4-oxadiazol-3-amine] was tested, and the “% inh … in Panc-1” value [1] was “B (26-49% inhibition)”, the inhibition [2] was 1 to 24% and the inhibition at 10 µM [3] was 1 to 24%. For the same molecule, the “KRas G12D mutant + SOS: % inh.” value ([4]; 20 μM compound) was “A (A = 1-25% inhibition)”, the “KRas G12D mutant: % inh.” value ([4]; 20 μM compound) was “B (B = 26-49% inhibition)” and the “KRas wild type + SOS: % inh.” value ([5]; 20 μM compound) was “A (A = 1-25% inhibition)”. For the same molecule, the “KRas wild type: % inh.” value ([5]; 20 μM compound) was “A (A = 1-25% inhibition)” and the inhibition at 20 µM [6] was 26 to 49%.

In the case of `COCC1CCN(c2nc(-c3nccn3C)nn3cc(-c4ccn(C(C)C)n4)c(C)c23)C1` (racemic) [Compound 2, rac 6-(1-Isopropyl-1H-pyrazol-3-yl)-4-(3-(methoxymethyl)pyrrolidin-1-yl)-5-methyl-2-(1-methyl-1H-imidazol-2-yl)pyrrolo[2,1-f][1,2,4]triazine], the “% inh … in Panc-1” value [1] was “B (26-49% inhibition)”, the inhibition [2] was 1 to 24% and the inhibition at 10 µM [3] was 25 to 49%. The “KRas G12D mutant + SOS: % inh.” value ([4]; 20 μM compound) was 0 (0 = 0% inhibition), the “KRas G12D mutant: % inh.” value ([4]; 20 μM compound) was 0 (0 = 0% inhibition) and the “KRas wild type + SOS: % inh.” value ([5]; 20 μM compound) was 0 (0 = 0% inhibition). The “KRas wild type: % inh.” value ([5]; 20 μM compound) was 0 (0 = 0% inhibition) and the inhibition at 20 µM [6] was 0%.

`Cc1ccn2nc(-c3nccn3C)nc(N)c12.O=C(O)C(F)(F)F` [Compound 37, 5-Methyl-2-(1-methyl-1H-imidazol-2-yl)pyrrolo[2,1-f][1,2,4]triazin-4-amine trifluoroacetic acid salt] was tested, and the “% inh … in Panc-1” value [1] was 0 (0% inhibition), the inhibition [2] was 0% and the inhibition at 10 µM [3] was 0%. For the same molecule, the “KRas G12D mutant + SOS: % inh.” value ([4]; 20 μM compound) was “B (B = 26-49% inhibition)”, the “KRas G12D mutant: % inh.” value ([4]; 20 μM compound) was “B (B = 26-49% inhibition)” and the “KRas wild type + SOS: % inh.” value ([5]; 20 μM compound) was “B (B = 26-49% inhibition)”. For the same molecule, the “KRas wild type: % inh.” value ([5]; 20 μM compound) was “B (B = 26-49% inhibition)” and the inhibition at 20 µM [6] was 0%.

`CCc1nc(Nc2nc(-c3nccn3C)nn3cc(-c4ccn(C(C)C)n4)c(C)c23)nn1C` [Compound 76, N-(5-Ethyl-1-methyl-1H-1,2,4-triazol-3-yl)-6-(1-isopropyl-1H-pyrazol-3-yl)-5-methyl-2-(1-methyl-1H-imidazol-2-yl)pyrrolo[2,1-f][1,2,4]triazin-4-amine] was tested, and the “% inh … in Panc-1” value [1] was 0 (0% inhibition), the inhibition [2] was 25 to 49% and the inhibition at 10 µM [3] was 25 to 49%. The “KRas G12D mutant + SOS: % inh.” value ([4]; 20 μM compound) was 0 (0 = 0% inhibition), the “KRas G12D mutant: % inh.” value ([4]; 20 μM compound) was “C (C = 50-75% inhibition)” and the “KRas wild type + SOS: % inh.” value ([5]; 20 μM compound) was 0 (0 = 0% inhibition). For the same molecule, the “KRas wild type: % inh.” value ([5]; 20 μM compound) was “B (B = 26-49% inhibition)” and the inhibition at 20 µM [6] was 50 to 75%.

With `COc1cccc(-c2cn3nc(-c4nccn4C)nc(N[C@@H]4CC[C@H](OC)C4)c3c2-c2ccccc2)c1C` (racemic) [Compound 271, rac 6-(3-Methoxy-2-methylphenyl)-N-((1R,3S)-3-methoxycyclopentyl)-2-(1-methyl-1H-imidazol-2-yl)-5-phenylpyrrolo[2,1-f][1,2,4]triazin-4-amine] the “% inh … in Panc-1” value [1] was “D (85-100% inhibition)”, the inhibition [2] was 75 to 100% and the inhibition at 10 µM [3] was 75 to 100%. The “KRas G12D mutant + SOS: % inh.” value ([4]; at 20 μM) was “B (B = 26-49% inhibition)”, the “KRas G12D mutant: % inh.” value ([4]; at 20 μM) was “B (B = 26-49% inhibition)” and the “KRas wild type + SOS: % inh.” value ([5]; at 20 μM) was “A (A = 1-25% inhibition)”. For the same molecule, the “KRas wild type: % inh.” value ([5]; at 20 μM) was “B (B = 26-49% inhibition)” and the inhibition at 20 µM [6] was 26 to 49%.

For `COc1ncncc1Nc1nc(-c2nccn2C)nn2cc(-c3ccn(C(C)C)n3)c(C)c12` [Compound 88, 6-(1-Isopropyl-1H-pyrazol-3-yl)-N-(4-methoxypyrimidin-5-yl)-5-methyl-2-(1-methyl-1H-imidazol-2-yl)pyrrolo[2,1-f][1,2,4]triazin-4-amine], the “% inh … in Panc-1” value [1] was 0 (0% inhibition), the inhibition [2] was 1 to 24% and the inhibition at 10 µM [3] was 1 to 24%. For the same molecule, the “KRas G12D mutant + SOS: % inh.” value ([4]; 20 μM compound) was “A (A = 1-25% inhibition)”, the “KRas G12D mutant: % inh.” value ([4]; 20 μM compound) was “A (A = 1-25% inhibition)” and the “KRas wild type + SOS: % inh.” value ([5]; 20 μM compound) was 0 (0 = 0% inhibition). For the same molecule, the “KRas wild type: % inh.” value ([5]; 20 μM compound) was 0 (0 = 0% inhibition) and the inhibition at 20 µM [6] was 1 to 25%.

`COc1cccc(-c2cn3nc(-c4nccn4C)nc(N[C@@H]4CC[C@@H](OC)C4)c3c2-c2ccccc2)c1C` (racemic) [Compound 270, rac 6-(3-Methoxy-2-methylphenyl)-N-((1R,3R)-3-methoxycyclopentyl)-2-(1-methyl-1H-imidazol-2-yl)-5-phenylpyrrolo[2,1-f][1,2,4]triazin-4-amine] was tested, and the “% inh … in Panc-1” value [1] was “D (85-100% inhibition)”, the inhibition [2] was 75 to 100% and the inhibition at 10 µM [3] was 75 to 100%. The “KRas G12D mutant + SOS: % inh.” value ([4]; at 20 μM) was “B (B = 26-49% inhibition)”, the “KRas G12D mutant: % inh.” value ([4]; at 20 μM) was “B (B = 26-49% inhibition)” and the “KRas wild type + SOS: % inh.” value ([5]; at 20 μM) was “A (A = 1-25% inhibition)”. The “KRas wild type: % inh.” value ([5]; at 20 μM) was “B (B = 26-49% inhibition)” and the inhibition at 20 µM [6] was 26 to 49%.

In the case of `CO[C@H]1CC[C@@H](Nc2nc(-c3nccn3C)nn3cc(-c4ccn(C(C)C)n4)c(-c4ccccc4)c23)C1` (racemic) [Compound 18, rac 6-(1-Isopropyl-1H-pyrazol-3-yl)-N-((1R,3S)-3-methoxycyclopentyl)-2-(1-methyl-1H-imidazol-2-yl)-5-phenylpyrrolo[2,1-f][1,2,4]triazin-4-amine hydrochloride], the “% inh … in Panc-1” value [1] was “C (50-84% inhibition)”, the inhibition [2] was 25 to 49% and the inhibition at 10 µM [3] was 1 to 24%. The “KRas G12D mutant + SOS: % inh.” value ([4]; 20 μM compound) was 0 (0 = 0% inhibition), the “KRas G12D mutant: % inh.” value ([4]; 20 μM compound) was “A (A = 1-25% inhibition)” and the “KRas wild type + SOS: % inh.” value ([5]; 20 μM compound) was “A (A = 1-25% inhibition)”. The “KRas wild type: % inh.” value ([5]; 20 μM compound) was “B (B = 26-49% inhibition)” and the inhibition at 20 µM [6] was 0%.
